Assay results: patent US20120040896A1, “COMPOSITIONS, METHODS AND USES FOR MODULATION OF BRCA 1” (THE REGENTS OF THE UNIVERSITY OF COLORADO, priority 2008, published 2012)
Where a SMILES comes first, the peptide text is derived from it. The star is where a group is joined. Cbz = O=C(OCc1ccccc1)*

How the values were obtained:
Format in all cases: cell-based, human
BRCA1 = test: Immunoblot of BRCA1 protein levels in breast carcinoma cells; settings: for effect of pretreatment on E2-induced accumulation of BRCA1 protein: MCF7, steroid depleted, pretreatment before E2; for BRCA1 protein levels under proteasome inhibition: MCF7, steroid depleted medium, 0.5, 4 or 8 hours
Method: (§1) MCF7 cells were obtained from the American Type Culture Collection (#HTB-22). T47D cells were provided by Baylor College of Medicine. Both lines were normally maintained at 37° C. with 5% CO2 in DMEM with 1 mM L-glutamine (Gibco) supplemented with 10% Fetalclone serum (HyClone) and 1% non-essential amino acids (Gibco). For steroid depleted conditions (denoted as CSS), cells were cultured in phenol-free DMEM with 1 mM L-glutamine and 25 mM HEPES supplemented with 10% charcoal/dextran treated fetal bovine serum (Gemini Bioproducts). 17-β-estradiol and MG132 were obtained from Sigma-Aldrich. Cycloheximide, U0126, and p38 inhibitor were obtained from Calbiochem. ICI 182780 was obtained from Tocris Biosciences. LY294002 was obtained from Cell Signaling Technology.
(§2) Whole cell lysates were prepared by washing cells twice with PBS and then scraping into ice-cold PBS. Pelleted cells were resuspended in modified RIPA buffer (50 mM Tris base, 150 mM NaCl, 2 mM EDTA, 1% Triton X-100, 0.5% Na-deoxycholate, 0.1% SDS, 50 mM NaF, 5 mM Na3VO4, plus Roche protease inhibitor tablets). Lysates were incubated for 30 minutes on ice, clarified by centrifugation, and protein concentration determined by Bradford assay (BioRad). Where indicated, lysates harvested without phosphatase inhibitors were treated with λ-phosphatase (New England Biolabs) according to manufacturer's instructions. 100 μg of total protein was loaded per lane for Tris-glycine SDS-PAGE. Samples were transferred to PVDF membrane (Millipore) for 200 volt-hours at 50 V constant at 16° C. Membranes were blocked in 5% dry non-fat milk (Carnation) dissolved in either PBS or TBS (25 mM Tris pH 8.0, 135 mM NaCl, 2.5 mM KCl). Primary antibody incubations were performed overnight at 4° C. diluted in either 0.5% dry non-fat milk/PBS-Tween-20 0.1% or in 3% BSA (Santa Cruz Biotechnology)/TBS-Tween-20 0.1%. Antibody suppliers are: BRCA1 (Ab-4 and Ab-1, Calbiochem); BARD1 (Bethyl Laboratories); Lamin A/C, phospho-(Ser/Thr) Akt Substrate, phospho-5473 Akt, and Akt (Cell Signaling Technology); Cyclin D1 (Lab Vision Corp.); Tubulin (Chemicon). Secondary antibodies were obtained from Amersham/GE Healthcare. Densitometry was performed on 600 dpi TIFF scans of Western blot films with Quantity One software (BioRad). Density values for BRCA1 and BARD1 in each sample were normalized by the value of the corresponding Lamin A/C density as a control for loading.

BARD1 = test: Immunoblot of BARD1 protein levels in breast carcinoma cells; settings: for effect of pretreatment on E2-induced accumulation of BARD1 protein: MCF7, steroid depleted, pretreatment before E2; for BARD1 protein levels under proteasome inhibition: MCF7, steroid depleted medium, 0.5, 4 or 8 hours
Method: as §1, §2

Akt = test: Immunoblot of phosphorylated Akt (pS473), Akt activation; settings: MCF7, steroid depleted medium, after treatment
Method: as §1
Whole cell lysates were prepared by washing cells twice with PBS and then scraping into ice-cold PBS. Pelleted cells were resuspended in modified RIPA buffer (50 mM Tris base, 150 mM NaCl, 2 mM EDTA, 1% Triton X-100, 0.5% Na-deoxycholate, 0.1% SDS, 50 mM NaF, 5 mM Na3VO4, plus Roche protease inhibitor tablets). Lysates were incubated for 30 minutes on ice, clarified by centrifugation, and protein concentration determined by Bradford assay (BioRad). […] Densitometry was performed on 600 dpi TIFF scans of Western blot films with Quantity One software (BioRad). […]

Compound | effect of pretreatment on E2-induced accumulation of BRCA1 protein (BRCA1) | effect of pretreatment on E2-induced accumulation of BARD1 protein (BARD1) | Akt activation (phosphorylated Akt pS473) (Akt) | BRCA1 protein levels under proteasome inhibition (BRCA1) | BARD1 protein levels under proteasome inhibition (BARD1)
C[C@]12CC[C@@H]3c4ccc(O)cc4C[C@@H](CCCCCCCCC[S+]([O-])CCCC(F)(F)C(F)(F)F)[C@H]3[C@@H]1CC[C@@H]2O (some centres unmarked) [ICI 182780] | abolished | abolished | – | – | –
N#CC(=C(/N)Sc1ccccc1N)/C(C#N)=C(/N)Sc1ccccc1N [MEK 1/2] | no effect | – | – | – | –
CC(C)C[C@@H](C=O)NC(=O)[C@H](CC(C)C)NC(=O)[C@H](CC(C)C)NC(=O)OCc1ccccc1 [MG132] (Cbz-Leu-Leu-Leu-aldehyde) | – | – | dramatic activation | accumulation | accumulation
CC(C)C[C@H](NC(=O)[C@H](Cc1ccccc1)NC(=O)c1cnccn1)B(O)O [bortezomib] | – | – | only minor activation | rapidly increased | rapidly increased
C[C@@H]1C[C@@H]([C@H](O)CC2CC(=O)NC(=O)C2)C(=O)[C@@H](C)C1 [cycloheximide, Cycloheximide] | did not prevent | did not prevent | – | – | –
